# Experimental data as given in patent US4886884A, “Derivatives from cervinomycin based antibiotics” (The Kitazato Institute, priority 1986, dated 1989).
# Read-outs that look alike come from different tables or passages of the source.
# Columns and labels:
# [1] = system: Gram-positive and Gram-negative bacteria, mycoplasmas; experiment: Antimicrobial activity (overall, in words); type: cell-based
# [2] = system: Staphylococcus aureus KB-210 (ATCC 6538P); experiment: Antibacterial activity, minimum inhibitory concentration (MIC); type: cell-based; settings: ATCC6538P
# [3] = system: Bacillus subtilis KB-211 (ATCC 6633); experiment: as above; type: cell-based
# [4] = system: Bacillus cereus KB-143 (IFO 3001); experiment: as above; type: cell-based
# [5] = system: Micrococcus luteus KB-212 (ATCC 9341); experiment: as above; type: cell-based
# [6] = system: Escherichia coli KB-176 (NIHJ JC-2); experiment: as above; type: cell-based
# [7] = system: Salmonella typhimurium KB-20; experiment: as above; type: cell-based; settings: Salmonella enterica
# [8] = system: Klebsiella pneumoniae KB-214 (ATCC 10031); experiment: as above; type: cell-based
# [9] = system: Proteus vulgaris KB-127 (IFO 3167); experiment: as above; type: cell-based
# [10] = system: Pseudomonas aeruginosa KB-115 (IFO 3080); experiment: as above; type: cell-based
# [11] = system: Clostridium perfringens (ATCC 13124); experiment: microbe, parasite or virus in culture; type: cell-based; settings: ATCC13124
# [12] = system: Peptococcus variabilis KB-235 (ATCC 14955); experiment: Antibacterial activity, minimum inhibitory concentration (MIC); type: cell-based
# [13] = system: Bacteroides fragilis KB-169 (ATCC 23749); experiment: as above; type: cell-based
# [14] = system: Mycoplasma gallisepticum KB-171 (S-6); experiment: as above; type: cell-based; settings: Mycoplasmoides gallisepticum
# [15] = system: Mycoplasma pneumoniae KB-173; experiment: as above; type: cell-based
# [16] = system: Acholeplasma laidlawii KB-174 (PG-8); experiment: as above; type: cell-based
# [17] = Solubility in different solvents; type: physicochemical; settings: organic solvent or mixture
# Text: Compounds (1) of the present invention had the following solubilities in different solvents.
# [18] = Acute toxicity test by oral administration; settings: mouse, in vivo
# [19] = system: Clostridium difficile (ATCC 9689); experiment: Antibacterial activity, minimum inhibitory concentration (MIC); type: cell-based; settings: Clostridioides difficile, ATCC9689
# [20] = system: Bifidobacterium bifidum (ATCC 11146); experiment: as above; type: cell-based
# [21] = in vivo; settings: mouse, po
# [22] = acetic acid, read-out: Solubility in Acetic acid
# [23] = dmso, read-out: Solubility in DMSO
# [24] = methanol, read-out: Solubility in Methanol
# [25] = inoculum 1 × 10^6 cells/ml, 37° C., read-out: MIC
# [26] = ATCC6633, inoculum 1 × 10^6 cells/ml, 37° C., read-out: MIC
# [27] = IFO3001, inoculum 1 × 10^6 cells/ml, 37° C., read-out: MIC
# [28] = ATCC9341, inoculum 1 × 10^6 cells/ml, 37° C., read-out: MIC
# [29] = NIHJJC2, inoculum 1 × 10^6 cells/ml, 37° C., read-out: MIC
# [30] = ATCC10031, inoculum 1 × 10^6 cells/ml, 37° C., read-out: MIC
# [31] = IFO3167, inoculum 1 × 10^6 cells/ml, 37° C., read-out: MIC
# [32] = IFO3080, inoculum 1 × 10^6 cells/ml, 37° C., read-out: MIC
# [33] = ATCC23749, inoculum 1 × 10^6 cells/ml, 37° C., read-out: MIC
# [34] = ATCC11146, inoculum 1 × 10^6 cells/ml, 37° C., read-out: MIC
compound,measurement,setting,value
"COc1cc2oc3c(c(=O)c2cc1OC)C(=O)c1c(ccc2c(C)c4c(c(OC)c12)C(=O)N1CCOC1(C)C4)C3=O (centres unmarked) [C,O-dimethyl Cervinomycin A2]",antimicrobial activity,[1],substantially equal to those of Cervinomycin A1 and A2
COc1cc2oc3c(c(=O)c2cc1OC)C(=O)c1c(ccc2c(C)c4c(c(O)c12)C(=O)N1CCOC1(C)C4)C3=O (centres unmarked) [C-methyl Cervinomycin A2],antimicrobial activity,[1],substantially equal to those of Cervinomycin A1 and A2
"COc1cc2oc3c(O)c4ccc5cc6c(c(O)c5c4c(O)c3c(=O)c2cc1OC)C(=O)N1CCOC1(C)C6 (centres unmarked) [Cervinomycin A1, reference compound]",MIC,[2],5 µg/mL
same,MIC,[3]; ATCC6633,2.5 µg/mL
same,MIC,[4]; IFO3001,10 µg/mL
same,MIC,[5]; ATCC9341,5 µg/mL
same,MIC,[6]; NIHJJC2,> 10 µg/mL
same,MIC,[7],> 10 µg/mL
same,MIC,[8]; ATCC10031,> 10 µg/mL
same,MIC,[9]; IFO3167,> 10 µg/mL
same,MIC,[10]; IFO3080,> 10 µg/mL
same,MIC,[11],1.25 µg/mL
same,MIC,[12],0.62 µg/mL
same,MIC,[13]; ATCC23749,1.25 µg/mL
same,MIC,[14],12.5 µg/mL
same,MIC,[15]; KB173,12.5 µg/mL
same,MIC,[16],12.5 µg/mL
same,solubility,[17]; [22],23 µg/mL
same,solubility,[17]; [23],78 µg/mL
same,solubility,[17]; [24],0.3 µg/mL
same,LD50,[18],320 mg/kg
"CCC[C@@H]1C[C@@H](C(=O)N[C@@H]([C@H]2O[C@H](SC)[C@H](O)[C@@H](O)[C@H]2O)[C@H](C)Cl)N(C)C1 [Clindamycin, reference compound]",MIC,[2]; [25],0.16 µg/mL
same,MIC,[3]; [26],2.5 µg/mL
same,MIC,[4]; [27],0.63 µg/mL
same,MIC,[5]; [28],0.04 µg/mL
same,MIC,[6]; [29],> 10 µg/mL
same,MIC,[7],> 10 µg/mL
same,MIC,[8]; [30],> 10 µg/mL
same,MIC,[9]; [31],> 10 µg/mL
same,MIC,[10]; [32],> 10 µg/mL
same,MIC,[11],0.4 µg/mL
same,MIC,[19]; [25],6.3 µg/mL
same,MIC,[12]; [25],0.16 µg/mL
same,MIC,[13]; [33],0.08 µg/mL
same,MIC,[20]; [34],0.02 µg/mL
same,MIC,[14],0.62 µg/mL
same,MIC,[15]; KB173,0.62 µg/mL
same,MIC,[16],0.62 µg/mL
"COc1cc2oc3c(c(=O)c2cc1OC)C(=O)c1c(ccc2cc4c(c(OC(C)=O)c12)C(=O)N1CCOC1(C)C4)C3=O (centres unmarked) [Monoacetyl Cervinomycin A2, monoacetyl Cervinomycin A2]",MIC,[2]; [25],0.31 µg/mL
same,MIC,[3]; [26],0.08 µg/mL
same,MIC,[4]; [27],0.16 µg/mL
same,MIC,[5]; [28],0.4 µg/mL
same,MIC,[6]; [29],> 10 µg/mL
same,MIC,[7]; [25],> 10 µg/mL
same,MIC,[8]; [30],> 10 µg/mL
same,MIC,[9]; [31],> 10 µg/mL
same,MIC,[10]; [32],> 10 µg/mL
same,MIC,[11],0.02 µg/mL
same,MIC,[19]; [25],0.05 µg/mL
same,MIC,[13]; [33],0.1 µg/mL
same,MIC,[20]; [34],0.2 µg/mL
same,MIC,[14]; [25],1.25 µg/mL
same,MIC,"[15]; KB173, inoculum 1 × 10^6 cells/ml, 37° C., read-out: MIC",0.6 µg/mL
same,MIC,[16]; [25],1.25 µg/mL
same,solubility,[17]; [22],3000 µg/mL
same,solubility,[17]; [23],5000 µg/mL
same,solubility,[17]; [24],300 µg/mL
same,LD50,[21],1800 mg/kg
COc1cc2oc3c(c(=O)c2cc1OC)C(=O)c1c(ccc2cc4c(c(OC)c12)C(=O)N1CCOC1(C)C4)C3=O (centres unmarked) [O-methyl Cervinomycin A2],antimicrobial activity,[1],substantially equal to those of Cervinomycin A1 and A2
"COc1cc2oc3c(OC(C)=O)c4ccc5cc6c(c(OC(C)=O)c5c4c(OC(C)=O)c3c(=O)c2cc1OC)C(=O)N1CCOC1(C)C6 (centres unmarked) [Triacetyl Cervinomycin A1, triacetyl Cervinomycin A1]",MIC,[2],0.16 µg/mL
same,MIC,[3]; ATCC6633,> 0.02 µg/mL
same,MIC,[4]; IFO3001,0.31 µg/mL
same,MIC,[5]; ATCC9341,0.08 µg/mL
same,MIC,[6]; NIHJJC2,> 10 µg/mL
same,MIC,[7],> 10 µg/mL
same,MIC,[8]; ATCC10031,> 10 µg/mL
same,MIC,[9]; IFO3167,> 10 µg/mL
same,MIC,[10]; IFO3080,> 10 µg/mL
same,MIC,[11],0.02 µg/mL
same,MIC,[19],0.05 µg/mL
same,MIC,[12],0.02 µg/mL
same,MIC,[13]; ATCC23749,0.1 µg/mL
same,MIC,[20]; ATCC11146,0.2 µg/mL
same,MIC,[14],0.156 µg/mL
same,MIC,[15]; KB173,0.156 µg/mL
same,MIC,[16],0.312 µg/mL
same,solubility,[17]; [22],> 25000 µg/mL
same,solubility,[17]; [23],> 50000 µg/mL
same,solubility,[17]; [24],1400 µg/mL
same,LD50,[18],1620 mg/kg
